Data reported in US20080200567A1, “IN VIVO SCREENING MODELS FOR TREATMENT OF ALZHEIMER'S DISEASE AND OTHER QPCT-RELATED DISORDERS” (PROBIODRUG AG, priority 2007, published 2008).

Columns and labels:
human QC = molecular target: T1, human QC (Homo sapiens, UniProt Q16769); assay: QC inhibition by chelators (inhibitor assay); assay type: biochemical; details: human QC and other animal QCs
T1 construct: The cDNA of the mature QC starting with codon 38 was fused in frame with the plasmid encoded 6× histidine tag; 6x histidine; made in house; host or cells: Pichia pastoris X33 (pPICZαB) or E. coli M15 (pQE-31)
Description: QC activity was evaluated fluorometrically using H-Gln-βNA. The samples consisted of 0.2 mM fluorogenic substrate, 0.25 U pyroglutamyl aminopeptidase (Unizyme, Horsholm, Denmark) in 0.2 M Tris/HCl, pH 8.0 containing 20 mM EDTA and an appropriately diluted aliquot of QC in a final volume of 250 μl. Excitation/emission wavelengths were 320/410 nm. The assay reactions were initiated by addition of glutaminyl cyclase. QC activity was determined from a standard curve of β-naphthylamine under assay conditions.
Reactions were carried out at 30° C. utilizing the NOVOStar reader for microplates (BMG labtechnologies). The samples consisted of varying concentrations of the fluorogenic substrate, 0.1 U pyroglutamyl aminopeptidase (Qiagen) in 0.05 M Tris/HCl, pH 8.0 containing 5 mM EDTA and an appropriately diluted aliquot of QC in a final volume of 250 μl. Excitation/emission wavelengths were 380/460 nm. The assay reactions were initiated by addition of glutaminyl cyclase. QC activity was determined from a standard curve of 7-amino-4-methylcoumarin under assay conditions. The kinetic data were evaluated using GraFit software.
This novel assay was used to determine the kinetic parameters for most of the QC substrates.
The initial velocities were evaluated and the enzymatic activity was determined from a standard curve of ammonia under assay conditions. All samples were measured at 30° C., using either the […]uor Plus or the Sunrise (both from TECAN) reader for microplates. Kinetic data was evaluated using GraFit software.
For inhibitor testing, the sample composition was the same as described above, except for the putative inhibitory compound added. For a rapid test of QC-inhibition, samples contained 4 mM of the respective inhibitor and a substrate concentration at 1 KM. For detailed investigations of the inhibition and determination of Ki-values, influence of the inhibitor on the auxiliary enzymes was investigated first. […] The inhibitory constant was evaluated by fitting the set of progress curves to the general equation for competitive inhibition using GraFit software.

mammalian QC = details: Busby et al. 1987 and later reports; cited from earlier work
[1] = cited from earlier work
[2] = Nonenzymatic turnover (cyclization) of model substrates; assay type: physicochemical; details: without enzyme
QC = assay: pH-dependence of the QC catalyzed conversion of Glu-βNA; assay type: biochemical

T1 sequence (Q16769 29-361): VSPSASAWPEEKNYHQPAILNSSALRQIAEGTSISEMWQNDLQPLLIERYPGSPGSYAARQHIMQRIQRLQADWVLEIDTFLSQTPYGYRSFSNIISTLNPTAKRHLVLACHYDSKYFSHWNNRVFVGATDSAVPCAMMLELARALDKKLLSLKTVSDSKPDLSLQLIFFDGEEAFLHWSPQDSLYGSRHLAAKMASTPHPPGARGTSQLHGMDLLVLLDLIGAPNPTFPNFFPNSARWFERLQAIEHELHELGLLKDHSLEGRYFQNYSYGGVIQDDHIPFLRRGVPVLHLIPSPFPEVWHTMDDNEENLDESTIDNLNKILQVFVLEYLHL

| Molecule | inhibition characteristics of QC by chelators (human QC) | Inhibition of a mammalian QC (mammalian QC) | further results |
| --- | --- | --- | --- |
| c1cnc2c(c1)ccc1cccnc12 [1,10-phenanthroline] | inhibition | detected | – |
| reduced 6-methylpterin | – | detected | – |
| O=C(O)CN(CCN(CC(=O)O)CC(=O)O)CC(=O)O [EDTA] | – | did not inhibit | – |
| O=C(O)c1cccc(C(=O)O)n1 [dipicolinic acid] | inhibition | – | – |
| Oc1cccc2cccnc12 [8-hydroxy-quinoline] | inhibition | – | – |
| N[C@@H](CCC(=O)O)C(=O)O [Glutamate] | – | – | pKa-value for the α-amino moiety [1]: ~7.5; pKa-value for the γ-carboxylic moiety [1]: about 4.2 |
| NC(=O)CC[C@H](N)C(=O)Nc1ccc2ccccc2c1 [Gln-NA, Glutaminyl-beta-naphthylamine] | – | – | nonenzymatic turnover [2]: negligible |
| N[C@@H](CCC(=O)O)C(=O)Nc1ccc2ccccc2c1 [Glu-βNA] | – | – | kinetically determined pKa-value (QC): 7.55+/−0.02; pH-optimum of catalysis (QC): ~6.0; nonenzymatic turnover [2]: negligible |
